What was measured:
[1] = Slurrying experiment (single form) in methanol, thermodynamic stability; format: physicochemical; conditions: for polymorphic form after slurrying (XRPD): slurried in methanol for four days at 25° C.
Description: The stability of the various solid forms of 5-(ethylsulfonyl)-2-(naphthalen-2-yl)benzo[d]oxazole was investigated by stirring samples of each and mixtures thereof in methanol for defined time periods.
Approximately 10 mg of two polymorphic forms was slurried in 0.25 ml of methanol for 4 days at either room temperature or 60° C. The supernatant liquor was then removed and the resulting solid was dried under vacuum for 24 hrs.
Approximately 2 mg of sample was gently compressed on the XRPD zero back ground single obliquely cut silica sample holder. The sample was then loaded into a Philips X-Pert MPD diffractometer and analysed using the following experimental conditions:
Tube anode: Cu Generator tension: 40 kV Tube current: 40 mA Wavelength alpha1: 1.5406 A Wavelength alpha2: 1.5444 A Start angle [2θ]: 5 End angle [2θ]: 35 Time per step: 2.5 seconds Scan step size: 0.06

Utrophin A promoter = assay: Luciferase reporter assay (murine H2K cells); format: cell-based, mouse; conditions: H2K/mdx/Utro A reporter cells, final concentration 10 μM, 48 hrs
Description: The cell line used for the screen is an immortalized mdx mouse H2K cell line that has been stably transfected with a plasmid containing 5 kb fragment of the Utrophin A promoter including the first untranslated exon linked to a luciferase reporter gene (see FIG. 26). Under conditions of low temperature and interferon containing media, the cells remain as myoblasts. These are plated into 96 well plates and cultured in the presence of compound for three days. The level of luciferase is then determined by cell lysis and reading of the light output from the expressed luciferase gene utilising a plate luminometer. The H2K/mdx/Utro A reporter cell line was passaged twice a week until ≦30% confluent. The cells were grown at 33° C. in the presence of 10% CO2 To remove the myoblasts for platting, they were incubated with Trypsin/EDTA until the monolayer started to detach. The H2K/mdx/Utro A reporter cell line cells were plated out into 96 well plates (Falcon 353296, white opaque) at a density of approximately 5000 cells/well in 190 μl normal growth medium. The plates were then incubated at 33° C. in the presence of 10% CO2 for 24 hrs. […] The plates were then incubated for a further 48 hrs Cells were then lysed in situ following the manufacture's protocols (Promega Steady-Glo Luciferase Assay System (E2520). Then counted for 10 seconds using a plate luminometer (Victor1420).

Compound: CCS(=O)(=O)c1ccc2oc(-c3ccc4ccccc4c3)nc2c1 [polymorphic form 2, 5-(ethylsulfonyl)-2-(naphthalen-2-yl)benzo[d]oxazole]
- polymorphic form after slurrying (XRPD) [1]: converted into polymorphic form 1
- polymorphic form after slurrying (XRPD) ([1]; listed as Polymorphic form 2): polymorphic form 1 has converted to polymorphic form 2

Compound: CCS(=O)(=O)c1ccc2oc(-c3ccc4ccccc4c3)nc2c1 [polymorphic form 1, 5-(ethylsulfonyl)-2-(naphthalen-2-yl)benzo[d]oxazole]
- polymorphic form after slurrying (XRPD) [1]: retains its structure
- polymorphic form after slurrying (XRPD) ([1]; listed as Polymorphic form 1): no change in the polymorphic form
- stability compared with previously known forms ([1]; stirring in methanol): increased stability

Compound: CCS(=O)(=O)c1ccc2oc(-c3ccc4ccccc4c3)nc2c1 [5-(ethylsulfonyl)-2-(naphthalen-2-yl)benzo[d]oxazole]
- Biological activity in luciferase reporter assay relative to control (Utrophin A promoter): +++ (Between 301% and 400% relative to control)
